Laboratory results published in patent US7851474B2, “Dipiperazinyl ketones and related analogues” (Neurogen Corporation, priority 2005, dated 2010).

Each compound was assayed against T1, chimeric human H3 receptor (Homo sapiens, UniProt Q9Y5N1, E19D) (assay: Chimeric human H3 receptor GTP binding assay (agonist-stimulated GTP-gamma35S binding, Example 7)). Settings: not given.
T1 construct: made in house; host or cells: Sf9 insect cells (baculovirus infection); P2 membrane preparation
Type: biochemical
Procedure, shortened: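 IC50 values come from non-linear regression of dose-response curves of filter-bound GTP-gamma^35S, counted by scintillation. Membranes were from infected Sf9 cells carrying receptor plus G-protein subunits, 35 μg/tube, with 10 μM GDP present.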

T1 sequence (Q9Y5N1 with tags, fused parts or gaps E19D): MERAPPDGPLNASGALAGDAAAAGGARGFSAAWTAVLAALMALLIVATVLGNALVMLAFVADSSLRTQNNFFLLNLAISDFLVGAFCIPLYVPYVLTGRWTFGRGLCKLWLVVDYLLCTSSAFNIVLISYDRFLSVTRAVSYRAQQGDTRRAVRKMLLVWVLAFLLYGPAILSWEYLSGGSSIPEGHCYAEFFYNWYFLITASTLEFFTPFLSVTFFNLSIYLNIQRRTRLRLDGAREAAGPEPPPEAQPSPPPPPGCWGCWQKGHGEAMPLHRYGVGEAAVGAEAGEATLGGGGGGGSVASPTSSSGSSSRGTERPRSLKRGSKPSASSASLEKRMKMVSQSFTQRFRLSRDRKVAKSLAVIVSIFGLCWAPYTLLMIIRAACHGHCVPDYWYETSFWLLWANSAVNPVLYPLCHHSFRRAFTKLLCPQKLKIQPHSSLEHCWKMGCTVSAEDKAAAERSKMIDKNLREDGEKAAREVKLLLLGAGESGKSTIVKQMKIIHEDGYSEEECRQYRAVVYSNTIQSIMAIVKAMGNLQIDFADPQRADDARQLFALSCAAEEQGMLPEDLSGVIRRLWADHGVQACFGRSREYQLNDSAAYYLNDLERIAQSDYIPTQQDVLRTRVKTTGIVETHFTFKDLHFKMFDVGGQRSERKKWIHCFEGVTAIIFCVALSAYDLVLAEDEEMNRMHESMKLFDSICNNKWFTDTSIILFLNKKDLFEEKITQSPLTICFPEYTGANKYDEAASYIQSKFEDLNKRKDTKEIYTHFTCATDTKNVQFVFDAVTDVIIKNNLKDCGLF

SMILES	Ki
O=C(CN1CCN(c2ccc(C(F)(F)F)cc2)CC1)N1CCN(C2CCCCC2)CC1 [Compound 803, 1-cyclohexyl-4-({4-[4-(trifluoromethyl)phenyl]piperazin-1-yl}acetyl)piperazine]	< 1000 nM
O=C(CN1CCN(c2cccc(C(F)(F)F)c2)CC1)N1CCN(C2CCCC2)CC1 [Compound 827, 1-cyclopentyl-4-({4-[3-(trifluoromethyl)phenyl]piperazin-1-yl}acetyl)piperazine]	< 1000 nM
O=C(CN1CCN(c2ccc(F)c(C(F)(F)F)c2)CC1)N1CCN(C2CCCC2)CC1 [Compound 830, 1-cyclopentyl-4-({4-[4-fluoro-3-(trifluoromethyl)phenyl]piperazin-1-yl}acetyl)piperazine]	< 1000 nM
CCN1CCN(C(=O)CN2CCN(c3ccc(C(F)(F)F)cc3)CC2)CC1 [Compound 842, 1-ethyl-4-({4-[4-(trifluoromethyl)phenyl]piperazin-1-yl}acetyl)piperazine]	< 1000 nM
CCN1CCN(C(=O)CN2CCN(c3ccc(OC)cc3)CC2)CC1 [Compound 843, 1-ethyl-4-{[4-(4-methoxyphenyl)piperazin-1-yl]acetyl}piperazine]	< 1000 nM

Same assay, conditions: Table II "Ki", symbol "*": Ki in the assay of Example 7; read-out: Ki

SMILES	Ki
Cc1cccc(N2CCN(CC(=O)N3CCN(C4CCCCC4)CC3)CC2)c1 [Compound 821, 1-cyclohexyl-4-{[4-(3-methylphenyl)piperazin-1-yl]acetyl}piperazine]	< 1000 nM
O=C(CN1CCN(c2ccc(F)cc2)CC1)N1CCN(C2CCCCC2)CC1 [Compound 822, 1-cyclohexyl-4-{[4-(4-fluorophenyl)piperazin-1-yl]acetyl}piperazine]	< 1000 nM
COc1ccc(N2CCN(CC(=O)N3CCN(C4CCCCC4)CC3)CC2)cc1 [Compound 823, 1-cyclohexyl-4-{[4-(4-methoxyphenyl)piperazin-1-yl]acetyl}piperazine]	< 1000 nM
Cc1ccc(N2CCN(CC(=O)N3CCN(C4CCCCC4)CC3)CC2)cc1 [Compound 824, 1-cyclohexyl-4-{[4-(4-methylphenyl)piperazin-1-yl]acetyl}piperazine]	< 1000 nM
O=C(CN1CCN(c2ccc([N+](=O)[O-])cc2)CC1)N1CCN(C2CCCCC2)CC1 [Compound 825, 1-cyclohexyl-4-{[4-(4-nitrophenyl)piperazin-1-yl]acetyl}piperazine]	< 1000 nM
O=C(CN1CCN(C(=O)C2CCCO2)CC1)N1CCN(C2CCCCC2)CC1 (stereo not drawn) [Compound 826, 1-cyclohexyl-4-{[4-(tetrahydrofuran-2-ylcarbonyl)piperazin-1-yl]acetyl}piperazine]	< 1000 nM
CS(=O)(=O)c1ccc(N2CCN(CC(=O)N3CCN(C4CCCC4)CC3)CC2)cc1 [Compound 828, 1-cyclopentyl-4-({4-[4-(methylsulfonyl)phenyl]piperazin-1-yl}acetyl)piperazine]	< 1000 nM
O=C(CN1CCN(c2ccc(C(F)(F)F)cc2)CC1)N1CCN(C2CCCC2)CC1 [Compound 829, 1-cyclopentyl-4-({4-[4-(trifluoromethyl)phenyl]-1-piperazinyl}acetyl) piperazine]	< 1000 nM
O=C(CN1CCN(c2cccc(Cl)c2Cl)CC1)N1CCN(C2CCCC2)CC1 [Compound 831, 1-cyclopentyl-4-{[4-(2,3-dichlorophenyl)piperazin-1-yl]acetyl}piperazine]	< 1000 nM
Cc1ccc(N2CCN(CC(=O)N3CCN(C4CCCC4)CC3)CC2)c(C)c1 [Compound 834, 1-cyclopentyl-4-{[4-(2,4-dimethylphenyl)piperazin-1-yl]acetyl}piperazine]	< 1000 nM
Cc1cccc(C)c1N1CCN(CC(=O)N2CCN(C3CCCC3)CC2)CC1 [Compound 835, 1-cyclopentyl-4-{[4-(2,6-dimethylphenyl)piperazin-1-yl]acetyl}piperazine]	< 1000 nM
COc1ccc(N2CCN(CC(=O)N3CCN(C4CCCC4)CC3)CC2)cc1OC [Compound 836, 1-cyclopentyl-4-{[4-(3,4-dimethoxyphenyl)piperazin-1-yl]acetyl}piperazine]	< 1000 nM
Cc1ccc(N2CCN(CC(=O)N3CCN(C4CCCC4)CC3)CC2)cc1C [Compound 837, 1-cyclopentyl-4-{[4-(3,4-dimethylphenyl)piperazin-1-yl]acetyl}piperazine]	< 1000 nM
O=C(CN1CCN(c2cc(Cl)cc(Cl)c2)CC1)N1CCN(C2CCCC2)CC1 [Compound 838, 1-cyclopentyl-4-{[4-(3,5-dichlorophenyl)piperazin-1-yl]acetyl}piperazine]	< 1000 nM
COc1ccc(N2CCN(CC(=O)N3CCN(C4CCCC4)CC3)CC2)cc1 [Compound 839, 1-cyclopentyl-4-{[4-(4-methoxyphenyl)piperazin-1-yl]acetyl}piperazine]	< 1000 nM
O=C(CN1CCN(c2ccc([N+](=O)[O-])cc2)CC1)N1CCN(C2CCCC2)CC1 [Compound 840, 1-cyclopentyl-4-{[4-(4-nitrophenyl)piperazin-1-yl]acetyl}piperazine]	< 1000 nM
O=C(CN1CCN(C(=O)C2CCCO2)CC1)N1CCN(C2CCCC2)CC1 (stereo not drawn) [Compound 841, 1-cyclopentyl-4-{[4-(tetrahydrofuran-2-ylcarbonyl)piperazin-1-yl]acetyl}piperazine]	< 1000 nM
CC(C)N1CCN(C(=O)CN2CCN(c3ccc(C(F)(F)F)cc3)CC2)CC1 [Compound 845, 1-isopropyl-4-({4-[4-(trifluoromethyl)phenyl]piperazin-1-yl}acetyl)piperazine]	< 1000 nM

Second part, the compound after the results:

Ki	SMILES
< 1000 nM	COc1ccc(-c2ccc(N3CCN(CC(=O)N4CCN(C5CCC5)CC4)CC3)cc2)cc1 [Compound 781, 1-cyclobutyl-4-{[4-(4′-methoxybiphenyl-4-yl)piperazin-1-yl]acetyl}piperazine]
< 1000 nM	COc1ccc(N2CCN(CC(=O)N3CCN(C4CCC4)CC3)CC2)cc1 [Compound 782, 1-cyclobutyl-4-{[4-(4-methoxyphenyl)piperazin-1-yl]acetyl}piperazine]
< 1000 nM	Cc1ccc(-c2ccc(N3CCN(CC(=O)N4CCN(C5CCC5)CC4)CC3)cc2)cc1 [Compound 784, 1-cyclobutyl-4-{[4-(4′-methylbiphenyl-4-yl)piperazin-1-yl]acetyl}piperazine]
< 1000 nM	Cc1ccc(N2CCN(CC(=O)N3CCN(C4CCC4)CC3)CC2)cc1 [Compound 785, 1-cyclobutyl-4-{[4-(4-methylphenyl)piperazin-1-yl]acetyl}piperazine]
< 1000 nM	O=C(CN1CCN(c2ccc([N+](=O)[O-])cc2)CC1)N1CCN(C2CCC2)CC1 [Compound 786, 1-cyclobutyl-4-{[4-(4-nitrophenyl)piperazin-1-yl]acetyl}piperazine]
< 1000 nM	O=C(CN1CCN(c2ccc(-c3ccc(Oc4ccccc4)cc3)cc2)CC1)N1CCN(C2CCC2)CC1 [Compound 787, 1-cyclobutyl-4-{[4-(4′-phenoxybiphenyl-4-yl)piperazin-1-yl]acetyl}piperazine]
< 1000 nM	CCCOc1ccc(-c2ccc(N3CCN(CC(=O)N4CCN(C5CCC5)CC4)CC3)cc2)cc1 [Compound 789, 1-cyclobutyl-4-{[4-(4′-propoxybiphenyl-4-yl)piperazin-1-yl]acetyl}piperazine]
< 1000 nM	O=C(CN1CCN(c2ccc(-c3ccncc3)cc2)CC1)N1CCN(C2CCC2)CC1 [Compound 791, 1-cyclobutyl-4-{[4-(4-pyridin-4-ylphenyl)piperazin-1-yl]acetyl}piperazine]
< 1000 nM	COc1ccc(F)cc1-c1ccc(N2CCN(CC(=O)N3CCN(C4CCC4)CC3)CC2)cc1 [Compound 792, 1-cyclobutyl-4-{[4-(5′-fluoro-2′-methoxybiphenyl-4-yl)piperazin-1-yl]acetyl}piperazine]
< 1000 nM	COc1ccc(C(C)C)cc1-c1ccc(N2CCN(CC(=O)N3CCN(C4CCC4)CC3)CC2)cc1 [Compound 793, 1-cyclobutyl-4-{[4-(5′-isopropyl-2′-methoxybiphenyl-4-yl)piperazin-1-yl]acetyl}piperazine]
< 1000 nM	O=C(CN1CCN(C(=O)C2CCCO2)CC1)N1CCN(C2CCC2)CC1 (stereo not drawn) [Compound 801, 1-cyclobutyl-4-{[4-(tetrahydrofuran-2-ylcarbonyl)piperazin-1-yl]acetyl}piperazine]
< 1000 nM	O=C(CN1CCN(c2ccc(F)c(C(F)(F)F)c2)CC1)N1CCN(C2CCCCC2)CC1 [Compound 804, 1-cyclohexyl-4-({4-[4-fluoro-3-(trifluoromethyl)phenyl]piperazin-1-yl}acetyl)piperazine]
< 1000 nM	O=C(CN1CCN(c2ccccc2)CC1)N1CCN(C2CCCCC2)CC1 [Compound 805, 1-cyclohexyl-4-[(4-phenylpiperazin-1-yl)acetyl]piperazine]
< 1000 nM	O=C(CN1CCC(N2CCCC2)CC1)N1CCN(C2CCCCC2)CC1 [Compound 806, 1-cyclohexyl-4-[(4-pyrrolidin-1-ylpiperidin-1-yl)acetyl]piperazine]
< 1000 nM	O=C(CN1CCN(c2ccc(Cl)c(Cl)c2)CC1)N1CCN(C2CCCCC2)CC1 [Compound 815, 1-cyclohexyl-4-{[4-(3,4-dichlorophenyl)piperazin-1-yl]acetyl}piperazine]
< 1000 nM	COc1ccc(N2CCN(CC(=O)N3CCN(C4CCCCC4)CC3)CC2)cc1OC [Compound 816, 1-cyclohexyl-4-{[4-(3,4-dimethoxyphenyl)piperazin-1-yl]acetyl}piperazine]
< 1000 nM	Cc1ccc(N2CCN(CC(=O)N3CCN(C4CCCCC4)CC3)CC2)cc1C [Compound 817, 1-cyclohexyl-4-{[4-(3,4-dimethylphenyl)piperazin-1-yl]acetyl}piperazine]
< 1000 nM	O=C(CN1CCN(c2cccc(F)c2)CC1)N1CCN(C2CCCCC2)CC1 [Compound 819, 1-cyclohexyl-4-{[4-(3-fluorophenyl)piperazin-1-yl]acetyl}piperazine]
< 1000 nM	COc1cccc(N2CCN(CC(=O)N3CCN(C4CCCCC4)CC3)CC2)c1 [Compound 820, 1-cyclohexyl-4-{[4-(3-methoxyphenyl)piperazin-1-yl]acetyl}piperazine]
